From patent US7476511B2, “Method of detecting and analyzing paclitaxel-mimetic compounds” (priority 2001, dated 2009)

Legend:
[1] = system: paclitaxel binding site of microtubules; assay: Binding of Flutax-2 to cross-linked microtubules by fluorescence anisotropy; parameters: species or system bovine; conditions: GAB-GDP buffer at 25° C.
Protocol: The intensity of fluorescence of Flutax-2 changes very little with the binding to microtubules. There is a small change in the excitation maximum from 494 nm to 495 nm (isosbestic point at 500 nm ) and a blue shift in emission from 523 nm to 520 nm (not shown here; isosbestic point at 525 nm; Diaz, J. F. et al.). […] The excitation anisotropy spectrum of a 50 nM solution of microtubule sites/Flutax-2 was compared with the spectrum of a similar solution in which the binding sites were blocked by an excess of paclitaxel and of free Flutax-2. […] The anisotropy values determined for the 495 nm band (emission 520 nm; GAB buffer containing glycerol, 25° C.) were: free Flutax-2 (50 nm ), rmin=0.055; in the presence of microtubules blocked with paclitaxel, r=0.060; Flutax-2 specifically bound to the microtubules, rmax=0.29 (the last was determined by valuation of 50 nm Flutax-2 with growing concentrations of microtubules). These changes are consistent with a strong immobilisation of the fluorophore by the binding. […]
Tubulin from bovine brain was purified and stored, and its concentration was measured as has been described (Andreu, J. M. et al.). […]
Fluorescence spectra were obtained corrected with a Fluorolog-3-221 photon count instrument (Jobin Yvon-Spex, Longlumean, France), with an emission bandwidth of 5 nm and excitation of […] at 25° C. […] The multiple measurements of anisotropy were made with a PolarStar microplate reader (BMG Labtechnologies, Offenburg, Germany) at 25° C. The solutions were excited with 200 pulses of vertically polarised light (band-pass filter 485-P, 480-492 nm ) and the emission was simultaneously analysed with vertical and horizontal polarisation filters (band-pass 520-P, 515-550 nm ). […] The values of well blanks with microtubules and without Flutex-2 were subtracted from the values of fluorescence intensity (the blanks typically represented less than 4% of the measurement). […]

[2] = system: cross-linked microtubules; assay: Concentration of taxoid binding sites by sedimentation and spectrophotometric measurement of Flutax-2; parameters: species or system bovine; conditions: 5 μM Flutax-2, GAB-GDP buffer, 25° C.
Protocol: Their concentration of total tubulin was measured after diluting them in 1% SDS using an extinction coefficient of 107,000 M^−1 cm^−1 at 275 nm (Diaz, J. F. and Andreu, J. M.). […] The concentration of binding sites of taxoid was determined by addition of growing concentrations of microtubules cross-linked to 5 μM Flutax-2 in the GAB-GDP buffer, sedimentation (Diaz, J. F. et al., 50,000 rpm in a Beckman TLA 120 rotor at 25° C.) and spectrophotometric measurement of Flutax-2. It was observed that the preparations of cross-linked microtubules bound 0.75±0.05 of Flutax-2 per total tubulin (in other words, a minimum of 95% of the bound tubulin was active binding this ligand). The control measurements using ^3H-paclitaxel and liquid scintillation gave values similar to Flutax-2. Once the anisotropy values of Flutax bound to microtubule and free were determined, the number of sites could also be determined by valuation of diluted solutions of microtubules cross-linked with Flutax-2 (see further below). The concentration of binding sites of taxoids of the preparations of cross-linked microtubules turned out to be stable in liquid nitrogen, decaying at speeds between 0.02 and 0.05 day^−1 at 4° C. (mean lives of five and two weeks respectively). The cross-linked microtubules were used within one average life starting from the preparation.

[3] = system: paclitaxel binding site of microtubules; assay: Displacement of 3H-paclitaxel from microtubules by sedimentation and scintillation count; conditions: 1 mg mL^−1 bovine serum albumin present
From the text: In a series of control measurements, the displacement of the interaction of ^3H-paclitaxel with microtubules by baccatine III and Flutax-2 was evidenced by sedimentation and scintillation count. […] This confirmed that baccatine III is recognised by the paclitaxel binding site of microtubules. Nevertheless, with the aim of having the majority of the radioactive ^3H-paclitaxel tracer in solution, instead of being absorbed into the polycarbonate tube of the table-top ultracentrifuge, it was necessary to include 1 mg mL^−1 of bovine serum albumin, which binds the paclitaxel (keeping it available for interaction with the microtubules) and also the Flutax-2 (decreasing its apparent affinity). These adsorption processes make it impossible to have any direct rigorous measurement of the affinity of the binding of paclitaxel to microtubules in our hands, and therefore of the affinity of its competitors using paclitaxel as a reference ligand in these diluted tests. The additional disadvantages of the binding tests of ^3H-paclitaxel in comparison with the homogeneous test of the anisotropy of fluorescent taxoid are the operations of centrifugation, separation and radioactive measurement that are required. […]

CC(=O)O[C@H]1C(=O)[C@]2(C)[C@@H](OC(=O)[C@H](C)NC(=O)c3ccc4c(c3)C(=O)OC43c4cc(F)c(O)cc4Oc4cc(O)c(F)cc43)C[C@H]3OC[C@@]3(OC(C)=O)[C@H]2[C@H](OC(=O)c2ccccc2)[C@]2(O)C[C@H](OC(=O)[C@H](O)[C@@H](NC(=O)c3ccccc3)c3ccccc3)C(C)=C1C2(C)C [Flutax-2, 7-O-[N-(2,7-difluoro-4′-fluoresceincarbonyl)-L-alanyl]paclitaxel]
equilibrium binding constant of Flutax-2 (FIG. 2 legend) [1]: 1.5e+08 M⁻¹ | equilibrium constant of the binding Kb (binding isotherm from change of anisotropy) [1]: 1.15e+08 M⁻¹ | Flutax-2 bound per total tubulin [2]: 0.75±0.05 | apparent affinity compared with fluorescence anisotropy tests [3]: seven times lower
